In patent US9889170B1, “Synthesis of nanoparticles using Balanites aegyptiaca” (KING SAUD UNIVERSITY, priority 2016, dated 2018):

Columns and labels:
Experiment in all cases: Agar well diffusion assay
Assay type in all cases: cell-based
[1] = test system: Escherichia coli (RCMB 010052); details: 100 μl per well, mean ± SD
Method: (§1) Antimicrobial activity of nanoparticles was determined using the agar well diffusion assay method as described by Holder and Boyce, 1994. Three bacterial (two gram positive and one gram negative) and […], namely, Bacillis suhtilis (RCMB 010067), […] pneumoniae (RCMB 010011), Escherichia coli (RCMB 010052), and Aspergillus fumigatus (RCMB 02568). The tested organisms were sub-cultured on nutrient agar medium (Oxoid laboratories, UK) for bacteria and Sabouraud dextrose agar (Oxoid laboratories, UK) for fungi. Ampicillin and Gentamicin were used as positive control for gram positive and gram negative bacteria, respectively, while Amphotericin B was used for fungi. The plates were done in triplicates. Bacterial cultures were incubated at 37° C. for 24 h, while the fungal cultures were incubated at 25-30° C. for 3-7 days. Antimicrobial activity was determined by measuring the zone of inhibition [A. Agwa, (2000)]. The antimicrobial effect of the B. aegyptiaca nanoparticles was evaluated against different gram positive and gram negative bacteria as well as fungi. The results of the antimicrobial effects of the synthesized nanoparticles are compiled in the Tables below.

[2] = test system: Klebsiella pneumoniae (RCMB 000111); details: 100 μl per well, mean ± SD
[3] = test system: Salmonella typhimurium (RCMB 010072); details: 100 μl per well, mean ± SD
[4] = test system: Escherichia coli (RCMB 010054); details: samples at 100 μl, mean ± SD
[5] = test system: Pseudomonas aeruginosa (RCMB 010043); details: 100 μl per well, mean ± SD
[6] = test system: Streptococcus pneumoniae (RCMB 010011); details: samples at 100 μl, mean ± SD
Method: as §1

[7] = test system: Bacillis subtilis (RCMB 010068); details: samples at 100 μl, mean ± SD
Method: as §1

[8] = test system: Bacillis subtilis (RCMB 010067); details: 100 μl per well, mean ± SD
Method: as §1

[9] = test system: Staphylococcus aureus (RCMB 010028); details: 100 μl per well, mean ± SD
[10] = test system: Aspergillus fumigatus (RCMB 02567); details: samples at 100 μl, mean ± SD
Method: as §1

[11] = test system: Aspergillus fumigatus (RCMB 02568); details: 100 μl per well, mean ± SD
Method: as §1

[12] = test system: Geotricum candidum (RCMB 05097); details: 100 μl per well, mean ± SD

Gentamicin
Mean zone of inhibition beyond well diameter (6 mm) [1]: 22.3 ± 0.18 mm
Mean zone of inhibition beyond well diameter (6 mm) [2]: 20.2 ± 0.25 mm
Mean zone of inhibition beyond well diameter (6 mm) [3]: 25.4 ± 0.18 mm
Diameter of the inhibition zone beyond the well diameter of 6 mm [4]: 20.3 ± 0.58 mm
Mean zone of inhibition beyond well diameter (6 mm) [5]: 17.3 ± 0.15 mm

CC1(C)S[C@@H]2[C@H](NC(=O)[C@H](N)c3ccccc3)C(=O)N2[C@H]1C(=O)O [Ampicillin]
Diameter of the inhibition zone beyond the well diameter of 6 mm [6]: 21.0 ± 1.0 mm
Diameter of the inhibition zone beyond the well diameter of 6 mm [7]: 31.3 ± 1.5 mm
Mean zone of inhibition beyond well diameter (6 mm) [8]: 32.4 ± 0.10 mm
Mean zone of inhibition beyond well diameter (6 mm) [9]: 27.4 ± 0.18 mm

C[C@@H]1[C@H](O)[C@@H](C)/C=C/C=C/C=C/C=C/C=C/C=C/C=C/[C@H](O[C@@H]2O[C@H](C)[C@@H](O)[C@H](N)[C@@H]2O)C[C@@H]2O[C@](O)(C[C@@H](O)C[C@@H](O)[C@H](O)CC[C@@H](O)C[C@@H](O)CC(=O)O[C@H]1C)C[C@H](O)[C@H]2C(=O)O [Amphotericin B]
Diameter of the inhibition zone beyond the well diameter of 6 mm [10]: 21.7 ± 1.5 mm
Mean zone of inhibition beyond well diameter (6 mm) [11]: 23.7 ± 0.10 mm
Mean zone of inhibition beyond well diameter (6 mm) [12]: 28.7 ± 0.22 mm
